Laboratory results from ChEMBL document CHEMBL1150041, “Arylpiperazide derivatives of phenylpiperazines as a new class of potent and selective 5-HT1B receptor antagonists” (Bioorg Med Chem Lett, 1997).
pKi: −log10 of the molar value.

Assays:
[1] = biological target: T1, 5-hydroxytryptamine receptor 1B (Homo sapiens, UniProt P28222); experiment: The compound was evaluated for intrinsic activity against human cloned 5-hydroxytryptamine 1B receptor
[2] = biological target: T1, 5-hydroxytryptamine receptor 1B; experiment: Affinity for 5-hydroxytryptamine 1B receptor subtype
[3] = biological target: T2, 5-hydroxytryptamine receptor 1A (Homo sapiens, UniProt P08908); experiment: Affinity for 5-hydroxytryptamine 1A receptor subtype
T2 sequence (P08908 whole entry): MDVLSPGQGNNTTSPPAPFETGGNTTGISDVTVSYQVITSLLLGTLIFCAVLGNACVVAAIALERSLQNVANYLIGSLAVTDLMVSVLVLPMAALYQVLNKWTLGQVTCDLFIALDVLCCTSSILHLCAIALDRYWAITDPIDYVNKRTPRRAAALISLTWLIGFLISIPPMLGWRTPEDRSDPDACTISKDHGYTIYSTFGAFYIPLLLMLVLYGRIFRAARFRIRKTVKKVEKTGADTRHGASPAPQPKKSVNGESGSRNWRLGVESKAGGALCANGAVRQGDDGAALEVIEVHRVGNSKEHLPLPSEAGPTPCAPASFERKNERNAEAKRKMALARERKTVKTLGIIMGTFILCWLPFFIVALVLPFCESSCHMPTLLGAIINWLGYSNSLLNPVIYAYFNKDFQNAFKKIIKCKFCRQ

[4] = biological target: 5-hydroxytryptamine receptor 1D (Homo sapiens, UniProt P28221); experiment: Affinity for 5-hydroxytryptamine 1D receptor subtype
Chain of 5-hydroxytryptamine receptor 1D (P28221 whole entry): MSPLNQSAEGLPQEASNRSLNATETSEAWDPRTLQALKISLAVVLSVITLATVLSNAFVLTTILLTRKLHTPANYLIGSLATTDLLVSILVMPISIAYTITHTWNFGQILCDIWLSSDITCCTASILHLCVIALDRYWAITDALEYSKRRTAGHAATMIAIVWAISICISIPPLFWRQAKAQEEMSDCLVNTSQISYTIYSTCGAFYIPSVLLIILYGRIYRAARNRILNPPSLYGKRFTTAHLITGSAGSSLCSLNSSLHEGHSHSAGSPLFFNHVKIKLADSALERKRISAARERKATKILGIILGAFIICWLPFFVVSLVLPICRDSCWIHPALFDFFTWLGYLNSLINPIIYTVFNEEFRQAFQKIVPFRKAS

[5] = biological target: T1, 5-hydroxytryptamine receptor 1B; experiment: The compound was evaluated for intrinsic activity against human cloned 5-hydroxytryptamine 1B receptor; Slient antagonist; assay type: functional; details: filed as antagonist
[6] = biological target: T1, 5-hydroxytryptamine receptor 1B; experiment: The compound was evaluated for intrinsic activity against human cloned 5-hydroxytryptamine 1B receptor; silent antagonist; assay type: functional
[7] = biological target: T1, 5-hydroxytryptamine receptor 1B; experiment: The compound was evaluated for antagonist potency at human cloned 5-hydroxytryptamine 1B receptor

T1 sequence (P28222 whole entry): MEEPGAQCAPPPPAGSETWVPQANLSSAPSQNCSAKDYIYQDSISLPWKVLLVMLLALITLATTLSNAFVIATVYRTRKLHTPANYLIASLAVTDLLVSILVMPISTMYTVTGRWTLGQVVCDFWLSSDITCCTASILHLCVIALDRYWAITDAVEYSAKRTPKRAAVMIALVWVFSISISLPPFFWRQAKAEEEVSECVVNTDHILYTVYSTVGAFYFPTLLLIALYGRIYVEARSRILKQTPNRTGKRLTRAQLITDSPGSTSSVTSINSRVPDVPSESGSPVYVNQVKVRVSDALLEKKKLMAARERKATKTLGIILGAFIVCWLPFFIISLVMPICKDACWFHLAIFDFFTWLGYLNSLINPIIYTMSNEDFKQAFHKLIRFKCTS

Row | Kb [1] [nM] | pKi [2] | pKi [3] | pKi [4] | Kb [6] [nM] | KB [7] [nM] | SMILES | Intrinsic activity [5]
1 | 39 | 9.30 | 6.59 | 7.59 | – | – | COc1ccc(NC(=O)N2CCN(c3cccc4c3CCCC4)CC2)cc1N1CCN(C)CC1 | –
2 | – | 9.85 | 7.14 | – | – | – | COc1ccc(NC(=O)c2ccc(-c3ccc(-c4noc(C)n4)cc3C)cc2)cc1N1CCN(C)CC1 [GR-127935] | –
3 | – | 7.40 | – | 6.38 | 195 | – | COc1ccc(NCC(=O)N2CCN(c3ccccc3C)CC2)cc1N1CCN(C)CC1 | –
4 | – | 8.10 | 7.10 | 7.15 | – | – | COc1cccc(N2CCN(C(=O)Nc3ccc(OC)c(N4CCN(C)CC4)c3)CC2)c1 | –
5 | – | – | 6.41 | – | 12 | – | COc1ccc(NC(=O)N2CCN(c3ccccc3C)CC2)cc1N1CCN(C)CC1 | –
6 | 16 | – | – | 7.05 | – | – | COc1ccc(NC(=O)N2CCN(c3ccccc3OC)CC2)cc1N1CCN(C)CC1 | –
7 | 27 | 7.74 | 6.35 | 6.47 | – | – | COc1ccc(NC(=O)N2CCN(c3ccccc3)CC2)cc1N1CCN(C)CC1 | –
8 | 12 | – | – | – | – | – | COc1ccc(N2CCN(C(=O)Nc3ccc(OC)c(N4CCN(C)CC4)c3)CC2)cc1 | –
9 | – | 8.89 | 6.41 | 7.43 | – | 10 | COc1ccc(NC(=O)N2CCN(c3c(C)cccc3C)CC2)cc1N1CCN(C)CC1 | –
10 | – | 8.74 | 6.24 | 7.06 | – | 1.9 | COc1ccc(NC(=O)N2CCN(c3ccc(C)cc3C)CC2)cc1N1CCN(C)CC1 | –

Row | SMILES | Kb [1] [nM] | pKi [2] | pKi [3] | pKi [4] | Kb [6] [nM] | KB [7] [nM] | Intrinsic activity [5]
11 | Cc1ccccc1N1CCN(C(=O)Oc2ccc(Cl)c(N3CCN(C)CC3)c2)CC1 | – | 6.82 | < 6.00 | 8.44 | – | – | Antagonist
12 | Cc1ccccc1N1CCN(C(=O)COc2ccc(Cl)c(N3CCN(C)CC3)c2)CC1 | – | 7.96 | < 6.00 | 6.62 | 38 | – | –
13 | Cc1nc(-c2ccc(-c3ccc(C(=O)N4CCc5cc6c(cc54)C4(CCN(C)CC4)CO6)cc3)c(C)c2)no1 [SB-224289] | – | – | < 6.00 | – | – | – | –
